Reference: patent US7705009B2, “4-aminopyrimidine-5-thione derivatives” (Hoffman-La Roche Inc., priority 2005, dated 2010)

Assays:
[1] = test system: HCT116 colorectal carcinoma cell line; test: Tetrazolium dye proliferation assay (MTT assay); format: cell-based; conditions: Homo sapiens, HCT-116, HCT116 cells
Description: Proliferation was evaluated by the tetrazolium dye assay according to the procedure of Denizot and Lang (Denizot, F. and Lang, R. J Immunol Methods 1986, 89, 271-277). The cell line used was HCT116, a colorectal carcinoma cell line obtained from the American Type Cell Culture Collection (ATCC; Rockville, Md.). The cells were grown in McCoy's 5A medium supplemented with 10% FCS and L-glutamine.
Cells were plated at the appropriate seeding density to give logarithmic growth over the course of the assay in a 96-well tissue culture plate. Plates were incubated overnight at 37° C. in a humidified incubator with 5% CO2. The next day, test compounds were serially diluted to four times the final concentration in the appropriate medium containing 1.2% DMSO. One-fourth final volume of each dilution was added in duplicate to the plates containing cells. The same volume of 1.2% DMSO in medium was added to a row of “control wells” such that the final concentration of DMSO in each well was 0.3%. Wells to which no cells were added served as the “blank.” Wells to which no inhibitor was added served as “no inhibitor control.” The plates were) returned to the incubator, and at set time points (determined by their growth curves) plates were analyzed as described below.
3-(4,5-dimethylthiazole-2-yl)-2,5-diphenyl-2H-tetrazolium bromide (thiazolyl blue; MTT; Sigma) was added to each well to yield a final concentration of 1 mg/ml. Plates were returned to the incubator for 2.5-3 hours at 37° C. The MTT-containing medium was removed and the resulting formazan metabolite was solubilized in 100% ethanol with shaking for 15 minutes at room temperature. Absorbance readings were taken in a microtiter plate reader (Dynatech and Molecular Devices plate readers were used interchangeably) at a wavelength of 570 nm with a 650 nm reference. Percent inhibition (% INH) is calculated by subtracting the absorbance of the blank well from all wells, then subtracting the ratio of the average absorbance of each test duplicate (SAVE) by the average of the controls (CAVE) from 1.00. The final number is then multiplied by 100 (% INH=(1.00−SAVE/CAVE)×100). The concentration at which 50% inhibition of cell proliferation is obtained (the IC50) is determined from the linear regression of a plot of the logarithm of the concentration versus percent inhibition.

human cyclin B-CDK1 = human cyclin B-CDK1 (Homo sapiens, UniProt P06493); test: CDK1 HTRF kinase assay (Ki measurement); format: biochemical; conditions: ATP at 3x Km
Chain of human cyclin B-CDK1 (P06493 whole entry): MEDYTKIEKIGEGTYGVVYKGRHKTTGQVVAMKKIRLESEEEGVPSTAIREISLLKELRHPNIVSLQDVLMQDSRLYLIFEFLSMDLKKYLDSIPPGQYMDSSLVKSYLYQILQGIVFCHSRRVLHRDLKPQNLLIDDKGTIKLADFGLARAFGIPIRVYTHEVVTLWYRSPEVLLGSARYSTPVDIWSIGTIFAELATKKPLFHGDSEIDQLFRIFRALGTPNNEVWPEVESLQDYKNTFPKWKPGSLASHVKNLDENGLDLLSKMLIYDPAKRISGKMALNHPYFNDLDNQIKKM
Chain of human cyclin B-CDK1 (P14635 whole entry partner): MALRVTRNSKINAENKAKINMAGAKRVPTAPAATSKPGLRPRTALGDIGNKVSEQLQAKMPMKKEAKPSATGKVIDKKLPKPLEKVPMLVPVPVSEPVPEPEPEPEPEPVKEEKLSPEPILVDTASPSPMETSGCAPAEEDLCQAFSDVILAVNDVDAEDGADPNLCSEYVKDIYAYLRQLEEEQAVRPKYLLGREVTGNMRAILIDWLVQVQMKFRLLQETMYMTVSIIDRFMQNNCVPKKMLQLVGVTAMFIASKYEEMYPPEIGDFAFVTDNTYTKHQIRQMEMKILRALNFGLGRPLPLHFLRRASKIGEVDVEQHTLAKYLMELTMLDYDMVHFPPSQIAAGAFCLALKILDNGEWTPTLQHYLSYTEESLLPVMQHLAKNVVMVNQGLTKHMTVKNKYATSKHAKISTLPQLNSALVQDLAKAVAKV
Description: (§1) To determine inhibition of Cdk4, Cdk2 and Cdk1 activity, kinase assays were conducted using FlashPlate™ assays (NEN™-Life Science Products). FlashPlate assays were performed using recombinant human cyclin B-CDK1, human cyclin E-CDK2 or human cyclin D1-CDK4 complexes. GST-cyclinE (GST-cycE), CDK2, GST-cyclinB (GST-cycB), CDK1, GST-CDK4 and cyclin D1 (cycD1) cDNA clones in baculovirus vectors were provided by Dr. W. Harper at the Baylor College of Medicine, Houston, Tex.
(§2) Alternatively, inhibition activity may be measured using Ki. […] These were done in 96-well format and read in 384-well plate format. The assays were run at 3× their respective Kms for ATP.
Twenty microliters were added to the wells of a 96-well plate. […] Blank wells without CDK4 were included. The plates were incubated at 37° C. for 30 minutes with shaking. […] After 30 minutes at 37° C., 15 μl/well of 3 nM Lance-Eu-W1024 labeled anti-rabbit IgG and 60 nM Allophycocyanin conjugated anti-His6 (PerkinElmer Life Sciences) in 25 mM Hepes, pH 7.0, 0.5 mg/ml BSA were added. Following a one hour incubation at 37 deg C., 35 μl of each well, in duplicate, were transferred to 384-well black plates. The plates were read using either ViewLux or Victor V readers (PerkinElmer Life Sciences) using an excitation wavelength of 340 nm and dual emission wavelengths of 615 nm and 665 nm. […] For ATP competitive inhibitors, the Ki values were calculated according to the following equation: Ki=IC50/(1+S/Km) where S refers to the substrate concentration and Km refers to the Michaelis-Menten constant.
(§3) The CDK1 and CDK2 assays were similarly run except for small differences in reagent and protein concentrations:
The compound and enzyme buffers for both assays contained 10 mM MgCl2. […] CDK1 at a reagent concentration of 0.15 ng/ul and CDK2 at a reagent concentration of 0.06 ng/ul were used.

human cyclin D1-CDK4 = human cyclin D1-CDK4 (Homo sapiens, UniProt P11802); test: CDK4 HTRF kinase assay (Ki measurement); format: biochemical; conditions: ATP at 3x Km
Chain of human cyclin D1-CDK4 (P11802 whole entry): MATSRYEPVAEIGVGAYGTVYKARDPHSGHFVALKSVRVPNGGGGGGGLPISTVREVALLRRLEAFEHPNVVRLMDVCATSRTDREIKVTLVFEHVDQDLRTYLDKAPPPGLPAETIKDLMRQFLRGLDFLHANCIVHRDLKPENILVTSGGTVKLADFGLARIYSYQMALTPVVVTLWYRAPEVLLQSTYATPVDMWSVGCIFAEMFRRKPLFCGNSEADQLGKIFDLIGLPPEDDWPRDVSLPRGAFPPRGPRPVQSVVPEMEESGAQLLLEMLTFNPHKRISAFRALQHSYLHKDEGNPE
Chain of human cyclin D1-CDK4 (P24385 whole entry partner): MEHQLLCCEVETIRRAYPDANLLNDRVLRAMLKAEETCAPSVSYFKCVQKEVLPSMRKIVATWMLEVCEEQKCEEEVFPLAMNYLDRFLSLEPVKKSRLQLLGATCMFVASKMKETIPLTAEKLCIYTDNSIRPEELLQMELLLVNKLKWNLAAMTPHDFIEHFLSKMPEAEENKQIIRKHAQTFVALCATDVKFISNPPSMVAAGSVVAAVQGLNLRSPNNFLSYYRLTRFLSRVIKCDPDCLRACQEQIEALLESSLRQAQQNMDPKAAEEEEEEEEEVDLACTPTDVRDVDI
Description: To determine inhibition of Cdk4, Cdk2 and Cdk1 activity, kinase assays were conducted using FlashPlateTM assays (NENTM-Life Science Products). […] W. Harper at the Baylor College of Medicine, Houston, Tex. Proteins were co-expressed in High FiveTM insect cells and the complex was purified on glutathione Sepharose resin (Pharmacia, Piscataway, N.J.) as previously described (Harper, J. W. et al. Cell 1993, 75, 805-816). A 6×-Histidine tagged […]) was used as the substrate for the cycD1-CDK4, cycB-CDK1 and the cycE-CDK2 assays (the expression plasmid was provided by Dr. Veronica Sullivan, Department of Molecular Virology, Roche Research Centre, Welwyn Garden City, United Kingdom). The Rb protein is a natural substrate for phosphorylation by CDK4, CDK2 and CDK1 (see Herwig and Strauss Eur. J. Biochem. Vol. 246 (1997) pp. 581-601 and the references cited therein). Alternatively, inhibition activity may be measured using Ki. Using the protein constructs described above in Example 19A above, CDK1, CDK2, and CDK4 HTRF assays were set up. These were done in 96-well format and read in 384-well plate format. The assays were run at 3× their respective Kms for ATP. In the CDK4 assay, test compounds were diluted to 3× their final concentrations in 25 mM Hepes, pH 7.0, 6.25 mM MgCl2, 1.5 mM DTT, 135 μM ATP. The DMSO concentration was no greater than 4.76%. Twenty microliters were added to the wells of a 96-well plate. The kinase reaction was initiated by the addition of 40 μl/well of a solution containing 0.185 μM Rb and 2.25 μg/ml CDK4 in 25 mM Hepes, pH 7.0, 6.25 mM MgCl2, 0.003% Tween-20, 0.3 mg/ml BSA, 1.5 mM DTT. Blank wells without CDK4 were included. The plates were incubated at 37° C. for 30 minutes with shaking. The kinase reaction was terminated by the addition of 15 μl/well of 1.6 uM anti-phospho-Rb ([…]) antibody (Cell Signaling Inc.) in 25 mM Hepes, pH 7.0, 24 mM EDTA, 0.2 mg/ml BSA. After 30 minutes at 37° C., 15 μl/well of 3 nM Lance-Eu-W1024 labeled anti-rabbit IgG and 60 nM Allophycocyanin conjugated anti-His6 (PerkinElmer Life Sciences) in 25 mM Hepes, pH 7.0, 0.5 mg/ml BSA were added. Following a one hour incubation at 37 deg C., 35 μl of each well, in duplicate, were transferred to 384-well black plates. The plates were read using either ViewLux or Victor V readers (PerkinElmer Life Sciences) using an excitation wavelength of 340 nm and dual emission wavelengths of 615 nm and 665 nm. IC50 values (the concentration of test compounds reducing the assay control fluorescence read-out by 50%) were first calculated from net readings at 665 nm, normalized for europium readings at 615 nm. For ATP competitive inhibitors, the Ki values were calculated according to the following equation: […]

human cyclin E-CDK2 = human cyclin E-CDK2 (Homo sapiens, UniProt P24941); test: CDK2 HTRF kinase assay (Ki measurement); format: biochemical; conditions: HTRF assay, ATP at 3x Km; read-out: Ki CDK2
Description: as §1, §2
Twenty microliters were added to the wells of a 96-well plate. […] Blank wells without CDK4 were included. The plates were incubated at 37° C. for 30 minutes with shaking. […] After 30 minutes at 37° C., 15 μl/well of 3 nM Lance-Eu-W1024 labeled anti-rabbit IgG and 60 nM Allophycocyanin conjugated anti-His6 (PerkinElmer Life Sciences) in 25 mM Hepes, pH 7.0, 0.5 mg/ml BSA were added. Following a one hour incubation at 37 deg C., 35 μl of each well, in duplicate, were transferred to 384-well black plates. The plates were read using either ViewLux or Victor V readers (PerkinElmer Life Sciences) using an excitation wavelength of 340 nm and dual emission wavelengths of 615 nm and 665 nm.
as §3
The compound and enzyme buffers for both assays contained 10 mM MgCl2.

Row | Structure (SMILES) | IC50 [1] [nM] | Ki (human cyclin B-CDK1) [nM] | Ki (human cyclin D1-CDK4) [nM] | Ki (human cyclin E-CDK2) [nM]
1 | COc1ccc(F)c(F)c1C(=S)c1cnc(NC2CCN(S(C)(=O)=O)CC2)nc1N [Example 1, [4-Amino-2-(1-methanesulfonyl-piperidin-4-ylamino)-pyrimidin-5-yl]-(2,3-difluoro-6-methoxy-phenyl)-methanethione] | 20 | 0.13 | 0.17 | –
2 | COc1ccc(F)c(F)c1C(=S)c1cnc(N[C@H]2CC[C@H](N(C)S(C)(=O)=O)CC2)nc1N [Example 3, N-{4-[4-Amino-5-(2,3-difluoro-6-methoxy-thiobenzoyl)-pyrimidin-2-ylamino]-cyclohexyl}-N-methylmethanesulfonamide] | 13 | 0.42 | 1.33 | 0.27
3 | COc1ccc(F)c(F)c1C(=S)c1cnc(NC2CCN(S(N)(=O)=O)CC2)nc1N [Example 4, 4-[4-Amino-5-(2,3-difluoro-6-methoxy-thiobenzoyl)-pyrimidin-2-ylamino]-piperidine-1-sulfonic acid amide] | 3 | < 3 | < 1 | < 1
4 | COc1ccc(F)cc1C(=S)c1cnc(NCCCNS(C)(=O)=O)nc1N [Example 8, N-{3-[4-Amino-5-(5-fluoro-2-methoxy-thiobenzoyl)-pyrimidin-2-ylamino]-propyl}-methanesulfonamide] | – | 89 | 37 | 65
5 | CS(=O)(=O)N1CCC(Nc2ncc(C(=S)c3cccs3)c(N)n2)CC1 [Example 11, [4-Amino-2-(1-methanesulfonyl-piperidin-4-ylamino)-pyrimidin-5-yl]-thiophen-2-yl-methanethione] | – | 43 | 10 | 12
6 | COc1ccc(F)c(F)c1C(=S)c1cnc(Nc2ccc(S(C)(=O)=O)cc2)nc1N [Example 12, [4-Amino-2-(4-methanesulfonyl-phenylamino)-pyrimidin-5-yl]-(2,3-difluoro-6-methoxy-phenyl)-methanethione] | – | 3 | 7 | 1
7 | COc1ccc(F)c(F)c1C(=S)c1cnc(NC2CCN(S(C)(=O)=O)C2)nc1N (centres unmarked) [Example 18, [4-Amino-2-(1-methanesulfonyl-pyrrolidin-3-ylamino)-pyrimidin-5-yl]-(2,3-difluoro-6-methoxy-phenyl)-methanethione] | – | – | 2.8 | 1

More lines, in order of falling Ki (human cyclin B-CDK1), values ahead:

Row | IC50 [1] [nM] | Ki (human cyclin B-CDK1) [nM] | Ki (human cyclin D1-CDK4) [nM] | Ki (human cyclin E-CDK2) [nM] | Structure (SMILES)
8 | – | 261 | – | 195 | COc1ccc(F)cc1C(=S)c1cnc(NC2CCN(C(=O)OC(C)(C)C)CC2)nc1N [Example 17, 4-[4-Amino-5-(5-fluoro-2-methoxy-thiobenzoyl)-pyrimidin-2-ylamino]-piperidine-1-carboxylic acid tert-butyl ester]
9 | – | 27 | 15 | 10 | CS(=O)(=O)N1CCC(Nc2ncc(C(=S)c3ccccc3)c(N)n2)CC1 [Example 16, [4-Amino-2-(1-methanesulfonyl-piperidin-4-ylamino)-pyrimidin-5-yl]-phenyl-methanethione]
10 | – | 14 | – | 1 | COc1ccc(F)c(F)c1C(=S)c1cnc(NC2CCN(S(=O)(=O)CCCN3CCOCC3)CC2)nc1N [Example 9, {4-Amino-2-[1-(3-morpholin-4-yl-propane-1-sulfonyl)-piperidin-4-ylamino]-pyrimidin-5-yl}(2,3-difluoro-6-methoxy-phenyl)-methanethione]
11 | – | 6 | 5 | 16 | CS(=O)(=O)N1CCC(Nc2ncc(C(=S)c3c(F)c(F)cc4ncoc34)c(N)n2)CC1 [Example 7, [4-Amino-2-(1-methanesulfonyl-piperidin-4-ylamino)-pyrimidin-5-yl]-(5,6-difluoro-benzooxazol-7-yl)-methanethione]
12 | – | 3 | – | 1 | COc1ccc(F)c(F)c1C(=S)c1cnc(NC2CCN(S(=O)(=O)c3ccccn3)CC2)nc1N [Example 10, {4-Amino-2-[1-(pyridine-2-sulfonyl)-piperidin-4-ylamino]-pyrimidin-5-yl}-(2,3-difluoro-6-methoxy-phenyl)-methanethione]
13 | 12 | 0.27 | 0.6 | 0.18 | COc1ccc(F)c(F)c1C(=S)c1cnc(N[C@H]2CC[C@H](NS(C)(=O)=O)CC2)nc1N [Example 2, N-{4-[4-Amino-5-(2,3-difluoro-6-methoxy-thiobenzoyl)-pyrimidin-2-ylamino]-cyclohexyl}methanesulfonamide]
